The results in this text go back to ChEMBL document CHEMBL4177652, “Synthesis of 14-deoxy-11,12-didehydroandrographolide analogues as potential cytotoxic agents for cholangiocarcinoma” (Bioorg Med Chem Lett, 2017).

Data set [1] relates to P388. Briefly: Growth inhibition of mouse P388 cells after 72 hrs by SRB assay. The class given is functional. Particulars: P388, 72 h, read-out: ED50 (the source's name). Background: Sulforhodamine B stains cellular protein and so reports cell mass.
Data set [2] concerns KB. Briefly: Growth inhibition of human KB cells after 72 hrs by SRB assay. The class given is functional. The note with it: read-out: ED50 (the source's name).
Data set [3] deals with HT-29. Briefly: Growth inhibition of human HT-29 cells after 72 hrs by SRB assay. The data set is classed as functional. The note with it: HT-29, 72 h, read-out: ED50 (the source's name).
The test system of data set [4] is MCF7. Briefly: Growth inhibition of human MCF7 cells after 72 hrs by SRB assay. The class given is functional. The note with it: MCF7, 72 h, read-out: ED50 (the source's name).
Data set [5] relates to A549. Briefly: Growth inhibition of human A549 cells after 72 hrs by SRB assay. Particulars: A549, 72 h, read-out: ED50 (the source's name). The data set is classed as functional.
Data set [6] can be described thus: Growth inhibition of rat ASK cells after 72 hrs by SRB assay. The class given is functional. Particulars: read-out: ED50 (the source's name).
Data set [7] in a line: Growth inhibition of human KKU-M213 cells after 72 hrs by SRB assay. The class given is functional. Particulars: KKU-M213, 72 h, read-out: ED50 (the source's name).
In data set [8] the test system is HuCC-A1. Briefly: Growth inhibition of human HuCCa1 cells after 72 hrs by SRB assay. The data set is classed as functional. The note with it: HuCC-A1, 72 h, read-out: ED50 (the source's name).
Data set [9] in a line: Growth inhibition of human KKU100 cells after 72 hrs by SRB assay. The class given is functional. Particulars: KKU100, 72 h, read-out: ED50 (the source's name).
The nature of data set [10]: Growth inhibition of human HEK293 cells after 72 hrs by SRB assay. The class given is cell-based. Particulars: read-out: ED50.

Regarding `CC(=O)O[C@@H]1CC[C@]2(C)[C@H](CC[C@@]3(CO3)[C@H]2/C=C/C2=CCOC2=O)[C@]1(C)COC(c1ccccc1)(c1ccccc1)c1ccccc1`, the EC50 in data set [1] was 5.28 µM; in [2], 5.12 µM; in data set [3] it was 6.74 µM; in [4], 6.84 µM; in data set [5], 8.16 µM; in data set [6], 8.29 µM. Moreover, the figures for the EC50 in data set [7], in [8] and in [9] were 10.2 µM, 9.74 µM and 14.1 µM, respectively. In addition, the GI50 at 72 h in data set [10] was 5.99 µM.

In the case of `C=C1CC[C@@H]2[C@](C)(CO[Si](C)(C)C(C)(C)C)[C@H](OC(C)=O)CC[C@@]2(C)[C@@H]1/C=C/C1=CCOC1=O`, the EC50 was 6.56 µM in data set [1]; 4.94 µM in data set [2]; 12.8 µM in data set [3]; 6.37 µM in [4]; 9.18 µM in data set [5]; 16.2 µM in data set [6]. Further, the EC50 worked out at 12.1 µM in data set [7], 16 µM in data set [8] and 14 µM in data set [9]. In addition, the GI50 at 72 h in data set [10] amounted to 6.36 µM.

In the case of `CC(C)(C)[Si](OC[C@@]1(C)[C@H]2CC[C@@]3(CO3)[C@@H](/C=C/C3=CCOC3=O)[C@]2(C)CC[C@H]1O)(c1ccccc1)c1ccccc1`, the EC50 in data set [1] stood at 4.13 µM; in data set [2], 4.02 µM; in [3], 4.43 µM; in data set [4] it was 4.23 µM; in data set [5], 6.22 µM; in data set [6], 6.81 µM. Moreover, the EC50 in data set [7] is 3.08 µM; in data set [8], 6.41 µM; in data set [9], 3.27 µM. Also, in [10], the GI50 at 72 h was 4.97 µM.

For the molecule `CC(=O)O[C@@H]1CC[C@]2(C)[C@H](CC[C@@]3(CO3)[C@H]2/C=C/C2=CCOC2=O)[C@]1(C)CO[Si](C(C)C)(C(C)C)C(C)C`, the EC50 amounted to 7.84 µM in [1]; 8.48 µM in [2]; 7.4 µM in data set [3]; 7.84 µM in [4]; 8.65 µM in data set [5]; 15.7 µM in data set [6]. In addition, the EC50 in data set [7] amounted to 7.22 µM; in data set [8], 8.92 µM; in data set [9], 17.5 µM. The GI50 at 72 h in [10] came to 7.39 µM.

Consider `CC(=O)O[C@@H]1CC[C@]2(C)[C@H](CC[C@@]3(CO3)[C@H]2/C=C/C2=CCOC2=O)[C@]1(C)CO[Si](C)(C)C(C)(C)C`, for which the EC50 is 7.45 µM in data set [1]; 25.8 µM in [2]; 18.6 µM in data set [3]; 16.6 µM in data set [4]; 24.1 µM in [5]; 22.4 µM in data set [6]. Also, the EC50 amounted to 19.1 µM in data set [7], 23.4 µM in data set [8] and 16.4 µM in [9]. The GI50 at 72 h in data set [10] worked out at 18.1 µM.
